Drawing on patent publication US20240083857A1, “2-Methyl-Quinazolines” (Bayer Pharma Aktiengesellschaft, priority 2017, published 2024), this text covers IC50 and inhibition for 25 compounds.

In assay [1] the target is K-Ras^G12C : hSOS1 interaction (Homo sapiens, UniProt Q07889). The assay is described as follows: Biochemical assay 1: K-Ras^G12C interaction assay with hSOS1 (HTRF). Type of assay: binding. For orientation: In TR-FRET formats the signal depends on donor and acceptor labels being close together.
Assay [2] concerns the target human SOS1 (nucleotide exchange of K-Ras^G12C) (Homo sapiens, UniProt Q07889). The assay is described as follows: Biochemical assay 2: K-Ras^G12C activation assay by hSOS1 at high GTP concentration (HTRF).
Assay [3] deals with human SOS1 (loading of human K-Ras^G12C-GDP with fluorescent GTP-analog) (Homo sapiens, UniProt Q07889). The assay is described as follows: Biochemical assay 3: K-Ras^G12C activation assay by hSOS1 (HTRF). The note with it: for inhibition at 20 µM: read-out: Assay 3 (KRAS-Activation by SOS no GTP) activity expressed as % inhibition at 20 μM.
Setting [4] is: read-out: Assay 1 (KRAS-SOS Interaction) activity expressed as IC50.
The mark [5] stands for this setting: high GTP, read-out: Assay 2 (KRAS-Activation by SOS high GTP) activity expressed as IC50.
Where [6] appears, read: no GTP, read-out: Assay 3 (KRAS-Activation by SOS no GTP) activity expressed as IC50.
Setting [7] is: E-notation values, unit inferred, read-out: Assay 1 (KRAS-SOS interaction) IC50.
[8] abbreviates: E-notation values, unit inferred, 50 μM GTP, read-out: Assay 2 (KRAS-Activation, high GTP) IC50.
Where [9] appears, read: E-notation values, unit inferred, read-out: Assay 3 (KRAS-Activation) IC50.

Broadly, the IC50 is the concentration that inhibits the measured activity by half. By inhibition is commonly meant the share of the control response that was lost under treatment.

Where two headings read alike, the source gives them in different places.

On to `COc1ncc(-c2cccc([C@@H](C)Nc3nc(C)nc4cc(OC)c(OC)cc34)c2)cn1` [Example 111, 6,7-dimethoxy-N-{(1R)-1-[3-(2-methoxypyrimidin-5-yl)phenyl]ethyl}-2-methylquinazolin-4-amine], for which the half-maximal inhibitory concentration (IC50) was found to be 2100 nM in assay [1] (setting [4]), 1670 nM in assay [2] (setting [5]) and 3340 nM in assay [3] (setting [6]).

As for `COc1cc2nc(C)nc(N[C@H](C)c3cccc(-c4cccc(S(C)(=O)=O)c4)c3)c2cc1OC` [Example 112, 6,7-dimethoxy-2-methyl-N-{(1R)-1-[3′-(methylsulfonyl)biphenyl-3-yl]ethyl}quinazolin-4-amine], the IC50 in assay [1] (setting [4]) was 696 nM; in assay [2] (setting [5]), 948 nM; in assay [3] (setting [6]), 1120 nM.

As for `COc1cc2nc(C)nc(N[C@H](C)c3cccc(-c4ccc5c(c4)CCO5)c3)c2cc1OC` [Example 113, N-{(1R)-1-[3-(2,3-dihydro-1-benzofuran-5-yl)phenyl]ethyl}-6,7-dimethoxy-2-methylquinazolin-4-amine], the IC50 came to 1350 nM in assay [1] (setting [4]), 839 nM in assay [2] (setting [5]) and 2100 nM in assay [3] (setting [6]).

For the compound `COc1cc2nc(C)nc(N[C@H](C)c3cccc(/C=C/c4ccccc4)c3)c2cc1OC` [Example 114, 6,7-dimethoxy-2-methyl-N-[(1R)-1-{3-[(E)-2-phenylethenyl]phenyl}ethyl]quinazolin-4-amine], the figures for the IC50 in assay [1] (setting [4]), in assay [2] (setting [5]) and in assay [3] (setting [6]) were 5280 nM, 2390 nM and 9210 nM, respectively.

Regarding `COc1cc2nc(C)nc(N[C@H](C)c3cccc(-c4ccc(C(=O)N(C)C)cc4)c3)c2cc1OC` [Example 115, 3′-{(1R)-1-[(6,7-dimethoxy-2-methylquinazolin-4-yl)amino]ethyl}-N,N-dimethylbiphenyl-4-carboxamide], the IC50 in assay [1] (setting [4]) came to 865 nM; in assay [2] (setting [5]), 802 nM; in assay [3] (setting [6]), 1570 nM.

As to `C/C=C/c1cccc([C@@H](C)Nc2nc(C)nc3cc(OC)c(OC)cc23)c1` [Example 116, 6,7-dimethoxy-2-methyl-N-[(1R)-1-{3-[(1E)-prop-1-en-1-yl]phenyl}ethyl]quinazolin-4-amine], the values for the IC50 in assay [1] (setting [4]), in assay [2] (setting [5]) and in assay [3] (setting [6]) were 1080 nM, 1150 nM and 1720 nM, respectively.

`COc1cc2nc(C)nc(N[C@H](C)c3cccc(C4=CCCC4)c3)c2cc1OC` [Example 117, N-{(1R)-1-[3-(cyclopent-1-en-1-yl)phenyl]ethyl}-6,7-dimethoxy-2-methylquinazolin-4-amine]: the values for the 50% inhibitory concentration (IC50) in assay [1] (setting [4]), in assay [2] (setting [5]) and in assay [3] (setting [6]) were 1650 nM, 1350 nM and 3080 nM, respectively.

In the case of `COc1cc2nc(C)nc(N[C@H](C)c3cccc(-c4cccc(NS(C)(=O)=O)c4)c3)c2cc1OC` [Example 118, N-(3′-{(1R)-1-[(6,7-dimethoxy-2-methylquinazolin-4-yl)amino]ethyl}biphenyl-3-yl)methanesulfonamide], the IC50 in assay [1] (setting [4]) worked out at 529 nM; in assay [2] (setting [5]), 481 nM; in assay [3] (setting [6]) it was 774 nM.

Regarding `COc1cc2nc(C)nc(N[C@H](C)c3cccc(-c4ccccc4NC(C)=O)c3)c2cc1OC` [Example 119, N-(3′-{(1R)-1-[(6,7-dimethoxy-2-methylquinazolin-4-yl)amino]ethyl}biphenyl-2-yl)acetamide], the IC50 worked out at 858 nM in assay [1] (setting [4]), 1280 nM in assay [2] (setting [5]) and 1480 nM in assay [3] (setting [6]).

`COc1cc2nc(C)nc(N[C@H](C)c3cccc(-c4ccccc4S(C)(=O)=O)c3)c2cc1OC` [Example 120, 6,7-dimethoxy-2-methyl-N-{(1R)-1-[2′-(methylsulfonyl)biphenyl-3-yl]ethyl}quinazolin-4-amine]: the IC50 in assay [1] (setting [4]) is 1590 nM; in assay [2] (setting [5]), 2020 nM; in assay [3] (setting [6]) it was 3530 nM.

For the compound `COc1cc2nc(C)nc(N[C@H](C)c3cccc(-c4ccccc4NS(C)(=O)=O)c3)c2cc1OC` [Example 121, N-(3′-{(1R)-1-[(6,7-dimethoxy-2-methylquinazolin-4-yl)amino]ethyl}biphenyl-2-yl)methanesulfonamide], the IC50 was found to be 452 nM in assay [1] (setting [4]), 679 nM in assay [2] (setting [5]) and 791 nM in assay [3] (setting [6]).

For the compound `COc1cc2nc(C)nc(N[C@H](C)c3cccc(-c4cccc(OCc5ccccc5)c4)c3)c2cc1OC` [Example 123, N-{(1R)-1-[3′-(benzyloxy)biphenyl-3-yl]ethyl}-6,7-dimethoxy-2-methylquinazolin-4-amine], the inhibition at 20 µM in assay [1] (read-out: Assay 1 (KRAS-SOS Interaction) activity expressed as % inhibition at 20 μM) was found to be 52%; in assay [3] (no GTP) it was 42%. In assay [2] (setting [5]), the IC50 stood at 13100 nM.

Take `COc1cc2nc(C)nc(N[C@H](C)c3cccc(-c4cc(Cl)cc(Cl)c4)c3)c2cc1OC` [Example 124, N-[{1R)-1-(3′,5′-dichlorobiphenyl-3-yl)ethyl]-6,7-dimethoxy-2-methylquinazolin-4-amine]: the IC50 in assay [1] (setting [4]) came to 18300 nM; in assay [2] (setting [5]), 9300 nM. Besides, in assay [3] (no GTP), the inhibition at 20 µM is 37%.

Turning to `COc1cc2nc(C)nc(N[C@H](C)c3cccc(-c4ccc5c(c4)OCCO5)c3)c2cc1OC` [Example 125, N-{(1R)-1-[3-(2,3-dihydro-1,4-benzodioxin-6-yl)phenyl]ethyl}-6,7-dimethoxy-2-methylquinazolin-4-amine], the IC50 turned out to be 2030 nM in assay [1] (setting [4]), 1090 nM in assay [2] (setting [5]) and 2040 nM in assay [3] (setting [6]).

Regarding `COc1cc2nc(C)nc(N[C@H](C)c3ccc(C#N)cc3)c2cc1OC` [Example 189, 4-{(1R)-1-[(6,7-dimethoxy-2-methylquinazolin-4-yl)amino]ethyl}benzonitrile], the IC50 turned out to be 998 nM in assay [1] (setting [4]), 1170 nM in assay [2] (setting [5]) and 2760 nM in assay [3] (setting [6]).

In the case of `COc1cc2nc(C)nc(NC(C)c3cc(Br)cc4c3OCC4)c2cc1OC` (stereo not drawn) [Example 225, N-[1-(5-bromo-2,3-dihydro-1-benzofuran-7-yl)ethyl]-6,7-dimethoxy-2-methylquinazolin-4-amine], the IC50 worked out at 1540 nM in assay [1] (setting [4]), 2270 nM in assay [2] (setting [5]) and 4680 nM in assay [3] (setting [6]).

With `COc1cc2nc(C)nc(NC(C)c3ccc(-c4ccccc4CNCC(N)=O)s3)c2cc1OC` (stereo not drawn) [Example 279, 2-[2-(5-{1-[(6,7-dimethoxy-2-methylquinazolin-4-yl)amino]ethyl}thiophen-2-yl)-benzyl]glycinamide], the IC50 was 176 nM in assay [1] (setting [4]), 168 nM in assay [2] (setting [5]) and 160 nM in assay [3] (setting [6]).

Regarding `COc1cc2nc(C)nc(NC(C)c3ccc(-c4ccccc4CNCC(=O)N(C)C)s3)c2cc1OC` (stereo not drawn) [Example 280, 2-[2-(5-{1-[(6,7-dimethoxy-2-methylquinazolin-4-yl)amino]ethyl}thiophen-2-yl)benzyl]-N,N-dimethylglycinamide], the IC50 in assay [1] (setting [4]) was found to be 148 nM; in assay [2] (setting [5]), 120 nM; in assay [3] (setting [6]), 135 nM.

Take `CNC(=O)CNCc1ccccc1-c1ccc(C(C)Nc2nc(C)nc3cc(OC)c(OC)cc23)s1` (stereo not drawn) [Example 282, 2-[2-(5-{1-[(6,7-dimethoxy-2-methylquinazolin-4-yl)amino]ethyl}thiophen-2-yl)benzyl]-N-methylglycinamide]: the IC50 in assay [1] (setting [4]) stood at 257 nM; in assay [2] (setting [5]) it was 265 nM; in assay [3] (setting [6]), 212 nM.

In the case of `COCCNC(=O)CNCc1ccccc1-c1ccc(C(C)Nc2nc(C)nc3cc(OC)c(OC)cc23)s1` (stereo not drawn) [Example 283, 2-[2-(5-{1-[(6,7-dimethoxy-2-methylquinazolin-4-yl)amino]ethyl}thiophen-2-yl)benzyl]-N-(2-methoxyethyl)glycinamide], the IC50 in assay [1] (setting [4]) turned out to be 418 nM; in assay [2] (setting [5]) it was 371 nM; in assay [3] (setting [6]), 344 nM.

Turning to `COc1cc2nc(C)nc(NC(C)c3ccc(-c4ccccc4CNCC(=O)NCc4ccccc4)s3)c2cc1OC` (stereo not drawn) [Example 284, N-benzyl-2-[2-(5-{1-[(6,7-dimethoxy-2-methylquinazolin-4-yl)amino]ethyl}thiophen-2-yl)benzyl]glycinamide], the IC50 in assay [1] (setting [4]) was determined as 1060 nM; in assay [2] (setting [5]) it was 879 nM; in assay [3] (setting [6]) it was 889 nM.

For the compound `COc1cc2nc(C)nc(NC(C)c3ccc(-c4ccccc4CNCC(=O)Nc4ccccc4)s3)c2cc1OC` (stereo not drawn) [Example 289, 2-[2-(5-{1-[(6,7-dimethoxy-2-methylquinazolin-4-yl)amino]ethyl}thiophen-2-yl)benzyl]-N-phenylglycinamide], the values for the IC50 in assay [1] (setting [4]), in assay [2] (setting [5]) and in assay [3] (setting [6]) were 2110 nM, 1180 nM and 2730 nM, respectively.

`COc1cc2nc(C)nc(NC(C)c3cccs3)c2cc1OC` (stereo not drawn) [Example 347, 6,7-dimethoxy-2-methyl-N-[1-(thiophen-2-yl)ethyl]quinazolin-4-amine]: the IC50 in assay [1] (setting [4]) was determined as 15600 nM; in assay [2] (setting [5]), 9050 nM. The inhibition at 20 µM in assay [3] (no GTP) was determined as 48%.

Consider `COc1cc2nc(C)nc(NC(C)c3ccc(-c4ccc(Br)cc4CN(C)C)s3)c2cc1OC` (stereo not drawn) [Example 384, N-(1-(5-(4-bromo-2-((dimethylamino)methyl)phenyl)thiophen-2-yl)ethyl)-6,7-dimethoxy-2-methylquinazolin-4-amine], for which the results for the IC50 in assay [1] (setting [7]), in assay [2] (setting [8]) and in assay [3] (setting [9]) were 123 nM, 66.5 nM and 84.6 nM, respectively.

`COc1cc2nc(C)nc(NC(C)c3ccc(-c4ccc(C(F)(F)F)cc4CN(C)C)s3)c2cc1OC` (stereo not drawn) [Example 385, N-(1-(5-(2-((dimethylamino)methyl)-4-(trifluoromethyl)phenyl)thiophen-2-yl)ethyl)-6,7-dimethoxy-2-methylquinazolin-4-amine]: the IC50 in assay [1] (setting [7]) stood at 732 nM; in assay [2] (setting [8]) it was 329 nM; in assay [3] (setting [9]) it was 388 nM.
